Assay results as given in patent US12364672B2, “Esketamine for use in treating major depressive disorder” (priority 2018, dated 2025).

How the values were obtained:
[1] = system: C57Bl/6 strain mice; experiment: Tail suspension test, 7-day administration; type: in vivo, mouse
Method: Esketamine HCl solutions were administered intraperitoneally (ip) to 8 groups of 10 inbred C57Bl/6 strain mice divided to receive one of the following dose levels for 7 days:
1. saline 10 ml/kg ip once prior to TST
2. esketamine 15 mg/kg ip once on day 7 prior to TST
3. esketamine 30 mg/kg ip once on day 7 prior to TST
4. saline 10 ml/kg ip daily for 7-days
5. esketamine 7.5 mg/kg ip daily for 7-days
6. esketamine 15 mg/kg ip daily for 7-days
7. esketamine 30 mg/kg ip once on day 1+saline daily for 6 more days
8. esketamine 30 mg/kg ip once on day 1+esketamine 7.5 mg/kg for 6 more days.
30 minutes after the last treatment, the animals were exposed to the tail suspension test (TST).

[2] = system: liver of Crl:CD(SD) rats; experiment: In vivo single cell gel electrophoresis (comet) assay, liver; conditions: some male animals given 75 mg/kg/day
[3] = system: human peripheral blood lymphocytes (HPBL)
Method: Toxicity (defined as ≥45% reduction in MI relative to the vehicle control) was evaluated at 9 concentrations, ranging from 0.0238 to 238 μg/ml, after exposure of HPBL to esketamine for 20 hours in the absence of S9 activation, or for 4 hours, either in the presence or absence of S9 activation, followed by a 16-hour recovery period.
The definitive chromosome aberration assay evaluated HPBL cells after exposure to esketamine for 20 hours in the absence of S9 activation, or for 4 hours, either in the presence of absence of S9 activation, followed by a 16-hour recovery. Positive controls for chromosomal aberrations in non-activated and S9-activated evaluations, respectively, consisted of mitomycin C (MMC, 0.6 and 0.3 μg/mL for the 4- and 20-hour exposures, respectively) and cyclophosphamide (CP, 2.5, 5, and 7.5 μg/mL). […] Initially, the doses selected for evaluation of chromosomal aberrations were 60, 120, and 238 μg/mL for the non-activated 4- and 20-hour treatment conditions; and 30, 60, and 200 μg/mL for the S9-activated 4-hour treatment condition.

[4] = system: C57Bl/6 strain mice; experiment: Tail suspension test, single dose; type: in vivo, mouse; conditions: TST after 30 minutes
Method: Ketamine and esketamine HCl solutions at dose levels of 7.5, 15 and 30 mg/kg were administered intraperitoneally (ip) to groups of 10 inbred C57Bl/6 strain mice. After 30 minutes animals were exposed to the tail suspension test (TST).

[5] = system: healthy male and female subjects; experiment: Single dose crossover study in healthy volunteers, treatment-emergent adverse events; type: in vivo, human; conditions: all treatments
From the text: A total of 128 TEAEs (treatment-emergent adverse event) were reported by 15 of 16 (94%) subjects of which 79 TEAEs reported by 14 of 16 (88%) subjects were to be related to the study drug. Overall, a total of 14 of 128 TEAEs reported by 4 (25%) subjects were of moderate severity and 114 of 128 TEAEs reported by 15 (94%) subjects were of mild severity. […] The most frequently occurring adverse events (reported more than twice) were headache, dizziness, hypokinesia, feeling abnormal, fatigue, euphoric mood inappropriate affect, nausea and hyperhidrosis. Table 4 presents the frequency of the most frequently reported related TEAEs as a percentage of the subjects that experienced an adverse effect per treatment.

[6] = system: human peripheral blood lymphocytes (HPBL); remark: listed apart in the source

Row | SMILES | efficacy in the TST vs 7-day saline control group ([1]; 7.5 mg/kg ip daily for 7 days (Group 5)) | decrease in immobility time ([1]; 15 mg/kg ip daily for 7 days (Group 6), not statistically significant) [%] | decrease in immobility time ([1]; 15 mg/kg ip once, acute (printed Group 3), p<0.007) [%] | effect on time spent in immobility ([1]; 30 mg/kg ip once on day 1 + 7.5 mg/kg for 6 more days (Group 8) vs Group 7, p=0.02) [%] | immobility time 7 days after a single injection ([1]; 30 mg/kg ip once on day 1 + saline for 6 more days (Group 7)) | liver histopathology [2] | Toxicity (≥45% reduction in MI relative to the vehicle control) [3] | cytotoxicity (45% reduction in mitotic index relative to the vehicle control) ([3]; definitive assay, non-activated 4- and 20-hour treatment, any dose (30 to 238 μg/ml)) | reduction of immobility time from the saline control group ([4]; 7.5 mg/kg ip) [%] | reduction of immobility time from the saline control group ([4]; 15 mg/kg ip) [%] | reduction of immobility time from the saline control group ([4]; 30 mg/kg ip) [%] | severe TEAEs or SAEs [5] | Toxicity (mitotic index) [6]
1 | CN[C@]1(c2ccccc2Cl)CCCCC1=O [esketamine, (2S)-2-(2-Chlorophenyl)-2-(methylamino) cyclohexanone] | did not exert any efficacy | ~35 | 38.9 | 53.4 | no decline in immobility time | Increased hepatocellular mitotic figures | not observed | not observed | 27.0 | 43.6 | 58.1 | No severe TEAEs or SAEs | 
2 | CNC1(c2ccccc2Cl)CCCCC1=O (stereo not drawn) [ketamine, dl 2-(2-chlorophenyl)-2(methylamino) cyclohexanone] |  |  |  |  |  |  |  |  |  |  | 71.2 |  | 
3 | N[C@]1(c2ccccc2Cl)CCCCC1=O [(S)-norketamine, (2S)-2-(2-Chlorophenyl)-2-(amino) cyclohexanone] |  |  |  |  |  |  |  |  |  |  |  |  | not observed
